# Laboratory results published in patent publication US12264159B2, “Functionalized heterocycles as antiviral agents” (Enanta Pharmaceuticals, Inc., priority 2018, dated 2025).
# Key:
# [1] = Compound induced cellular toxicity in HepG2 cells, ATPlite 1Step; type: cell-based; conditions: human, three days exposure, 50% reduction of total ATP vs no drug controls
# Experimental: At day 3, post seeding cells are treated with ATPlite 1Step according to the manufacturer's instructions.
# HBV in 2.2.15 cells = experiment: 2.2.15 cells: viral product in cell lysates quantified via quantitative real time PCR; type: cell-based, hepatitis B virus (HBV); conditions: Hepatitis B virus, 120 h, day 5 post treatment, 50% reduction of viral product vs no drug controls, readout (qPCR, HBsAg or HBeAg) not specified for the column
# Outline: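 2.2.15 cells (35,000/well, DMEM/F12, 10% FBS, G418) were treated with 5-fold serial compound dilutions, 0.5% DMSO final. After 5 days, lysates were quantified by qPCR, or supernatant HBsAg/HBeAg by ELISA; EC50 is the concentration giving 50% reduction versus no-drug controls.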
SMILES,CC50 at 3 days [1],EC50 (HBV in 2.2.15 cells)
"CC(C)(C)[C@@H]1Cn2nc(C3CC3)c(-c3ccccc3F)c2-c2cc(=O)c(C(=O)O)cn21 [Example 148, (R)-6-(tert-butyl)-2-cyclopropyl-1-(2-fluorophenyl)-10-oxo-5,6-dihydro-10H-pyrazolo[1,5-a]pyrido[2,1-c]pyrazine-9-carboxylic acid]",> 25000 nM,< 100 nM
"CC(C)(C)[C@@H]1Cn2nc(-c3cc(F)c(F)cc3N)cc2-c2cc(=O)c(C(=O)O)cn21 [Example 64, (R)-2-(2-amino-4,5-difluorophenyl)-6-(tert-butyl)-10-oxo-5,6-dihydro-10H-pyrazolo[1,5-a]pyrido[2,2-c]pyrazine-12-carboxylic acid]",> 25000 nM,< 100 nM
"CC(C)COc1ccccc1-c1cc2n(n1)C[C@@H](C(C)(C)C)n1cc(C(=O)O)c(=O)cc1-2 [Example 80, (R)-6-(tert-butyl)-2-(2-isobutoxyphenyl)-10-oxo-5,6-dihydro-10H-pyrazolo[1,5-a]pyrido[2,2-c]pyrazine-12-carboxylic acid]",> 25000 nM,< 100 nM
"CC(C)(C)[C@@H]1Cn2nc(C3CC3)c(-c3ccc(F)cc3)c2-c2cc(=O)c(C(=O)O)cn21 [Example 146, (R)-6-(tert-butyl)-2-cyclopropyl-1-(4-fluorophenyl)-10-oxo-5,6-dihydro-10H-pyrazolo[1,5-a]pyrido[2,1-c]pyrazine-9-carboxylic acid]",> 25000 nM,< 100 nM
"CC(C)(C)[C@@H]1Cn2nc(-c3cccc4ccoc34)cc2-c2cc(=O)c(C(=O)O)cn21 [Example 27, (R)-2-(benzofuran-7-yl)-6-(tert-butyl)-10-oxo-5,6-dihydro-10H-pyrazolo[1,5-a]pyrido[2,2-c]pyrazine-12-carboxylic acid]",> 25000 nM,< 100 nM
"CC(C)(C)[C@@H]1Cn2nc(-c3ccc4c(c3F)OCO4)cc2-c2cc(=O)c(C(=O)O)cn21 [Example 55, (R)-6-(tert-butyl)-2-(4-fluorobenzo[d][1,3]dioxol-5-yl)-10-oxo-5,6-dihydro-10H-pyrazolo[1,5-a]pyrido[2,2-c]pyrazine-12-carboxylic acid]",> 25000 nM,< 100 nM
"CC(C)(C)[C@@H]1Cn2nc(-c3ccc(F)c(F)c3F)cc2-c2cc(=O)c(C(=O)O)cn21 [Example 44, (R)-6-(tert-butyl)-10-oxo-2-(2,3,4-trifluorophenyl)-5,6-dihydro-10H-pyrazolo[1,5-a]pyrido[2,2-c]pyrazine-12-carboxylic acid]",> 25000 nM,< 100 nM
"CC(C)(C)[C@@H]1Cn2nc(-c3ccc(F)cc3)c(-c3ccc(F)cc3)c2-c2cc(=O)c(C(=O)O)cn21 [Example 91, (R)-6-(tert-butyl)-1,2-bis(4-fluorophenyl)-10-oxo-5,6-dihydro-10H-pyrazolo[1,5-a]pyrido[2,1-c]pyrazine-9-carboxylic acid]",> 25000 nM,< 100 nM
"CC(C)(C)[C@@H]1Cn2nc(C3CC3)c(-c3cccc(F)c3)c2-c2cc(=O)c(C(=O)O)cn21 [Example 147, (R)-6-(tert-butyl)-2-cyclopropyl-1-(3-fluorophenyl)-10-oxo-5,6-dihydro-10H-pyrazolo[1,5-a]pyrido[2,1-c]pyrazine-9-carboxylic acid]",> 25000 nM,< 100 nM
"CC(C)[C@@H]1Cn2nc(C3CC3)c(-c3ccsc3)c2-c2cc(=O)c(C(=O)O)cn21 [Example 128, (R)-2-cyclopropyl-6-isopropyl-10-oxo-1-(thiophen-3-yl)-5,6-dihydro-10H-pyrazolo[1,5-a]pyrido[2,1-c]pyrazine-9-carboxylic acid]",> 25000 nM,< 100 nM
"CC(C)(C)[C@@H]1Cn2nc(C3CC3)c(-c3cncs3)c2-c2cc(=O)c(C(=O)O)cn21 [Example 163, (R)-6-(tert-butyl)-2-cyclopropyl-10-oxo-1-(thiazol-5-yl)-5,6-dihydro-10H-pyrazolo[1,5-a]pyrido[2,1-c]pyrazine-9-carboxylic acid]",> 25000 nM,< 100 nM
"CCOc1c(F)cccc1-c1cc2n(n1)C[C@@H](C(C)(C)C)n1cc(C(=O)O)c(=O)cc1-2 [Example 71, (R)-6-(tert-butyl)-2-(2-ethoxy-3-fluorophenyl)-10-oxo-5,6-dihydro-10H-pyrazolo[1,5-a]pyrido[2,2-c]pyrazine-12-carboxylic acid]",> 25000 nM,< 100 nM
"CC(C)(C)[C@@H]1Cn2ncc(-c3cccc4c3OC(F)(F)O4)c2-c2cc(=O)c(C(=O)O)cn21 [Example 111, (R)-6-(tert-butyl)-1-(2,2-difluorobenzo[d][1,3]dioxol-4-yl)-10-oxo-5,6-dihydro-10H-pyrazolo[1,5-a]pyrido[2,1-c]pyrazine-9-carboxylic acid]",> 25000 nM,< 100 nM
"CC(C)(C)[C@@H]1Cn2nc(-c3c(O)cccc3F)cc2-c2cc(=O)c(C(=O)O)cn21 [Example 47, (R)-6-(tert-butyl)-2-(2-fluoro-6-hydroxyphenyl)-10-oxo-5,6-dihydro-10H-pyrazolo[1,5-a]pyrido[2,2-c]pyrazine-12-carboxylic acid]",> 25000 nM,< 100 nM
"COc1cccc(-c2nn3c(c2-c2cccc(OC)c2)-c2cc(=O)c(C(=O)O)cn2[C@H](C(C)(C)C)C3)c1 [Example 97, (R)-6-(tert-butyl)-1,2-bis(3-methoxyphenyl)-10-oxo-5,6-dihydro-10H-pyrazolo[1,5-a]pyrido[2,1-c]pyrazine-9-carboxylic acid]",> 25000 nM,< 100 nM
"CNc1ncc(-c2cc3n(n2)C[C@@H](C(C)(C)C)n2cc(C(=O)O)c(=O)cc2-3)cn1 [Example 14, (R)-6-(tert-butyl)-2-(2-(methylamino)pyrimidin-5-yl)-10-oxo-5,6-dihydro-10H-pyrazolo[1,5-a]pyrido[2,2-c]pyrazine-12-carboxylic acid]",> 25000 nM,200 to 1000 nM
"COc1cccc(-c2cc3n(n2)C[C@@H](C(C)(C)C)n2cc(C(=O)O)c(=O)cc2-3)c1 [Example 11, (R)-6-(tert-butyl)-2-(3-methoxyphenyl)-10-oxo-5,6-dihydro-10H-pyrazolo[1,5-a]pyrido[2,2-c]pyrazine-12-carboxylic acid]",> 25000 nM,< 100 nM
"CC(C)(C)[C@@H]1Cn2nc(-c3cccc4c3OCC4)cc2-c2cc(=O)c(C(=O)O)cn21 [Example 59, (R)-6-(tert-butyl)-2-(2,3-dihydrobenzofuran-7-yl)-10-oxo-5,6-dihydro-10H-pyrazolo[1,5-a]pyrido[2,2-c]pyrazine-12-carboxylic acid]",> 25000 nM,< 100 nM
"COc1c(-c2cc3n(n2)C[C@@H](C(C)(C)C)n2cc(C(=O)O)c(=O)cc2-3)ccc(F)c1F [Example 69, (R)-6-(tert-butyl)-2-(3,4-difluoro-2-methoxyphenyl)-10-oxo-5,6-dihydro-10H-pyrazolo[1,5-a]pyrido[2,2-c]pyrazine-12-carboxylic acid]",> 25000 nM,< 100 nM
"CC(C)(C)[C@@H]1Cn2ncc(-c3cccc(F)c3)c2-c2cc(=O)c(C(=O)O)cn21 [Example 103, (R)-6-(tert-butyl)-1-(3-fluorophenyl)-10-oxo-5,6-dihydro-10H-pyrazolo[1,5-a]pyrido[2,1-c]pyrazine-9-carboxylic acid]",> 25000 nM,< 100 nM
